PubChem BioAssay (NCI)
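Method: 48-hour compound exposure of cells in 96-well plates, five concentrations, linear interpolation of endpoints. TGI is the concentration that stops growth completely.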

What follows are molecules tested on MALME-3M melanoma (assay: NCI-60 cell line screen, 48 h).

`COCO[C@@H]1C[C@H]2C(=O)Nc3ccccc3C(=O)N2C1` and `CN1C(=O)C2CCC(=O)N2c2cccnc21` (stereo not drawn) cannot be ordered by TGI: > 100 µM for the first, > 100 µM for the second.

Compared with `Nc1c2c(nc3ccccc13)-c1ccccc1CC2`, `CCOC(=O)CSc1c(C(=O)OCC)c(=O)n(-c2ccccc2)c(=S)n1-c1ccccc1` is higher in TGI: 20.8 µM for the first, > 100 µM for the second.

`CC(=O)O[C@@H]1[C@H](C(C)C)[C@@H](OC(C)=O)C/C(C)=C/CC[C@]2(C)O[C@@H]12` was tested, and the TGI was > 100 µM.

What follows are molecules tested on SK-MEL-28 melanoma (assay: NCI-60 cell line screen, 48 h).

Going from `CN(C)C(=O)O/N=C1/C(c2c(O)[nH]c3ccccc23)=Nc2ccccc21` to `Nc1c2c(nc3ccccc13)-c1ccccc1CC2`, the TGI falls from > 100 µM to 22.8 µM.

`CC(=O)NC(Cc1ccc(O)cc1)C(=O)O` (stereo not drawn) and `CCOC(=O)CSc1c(C(=O)OCC)c(=O)n(-c2ccccc2)c(=S)n1-c1ccccc1` cannot be ordered by TGI: > 100 µM for the first, > 100 µM for the second.

`COCO[C@@H]1C[C@H]2C(=O)Nc3ccccc3C(=O)N2C1` and `CN1C(=O)C2CCC(=O)N2c2cccnc21` (stereo not drawn) cannot be ordered by TGI: > 100 µM for the first, > 100 µM for the second.

For `CC(=O)O[C@@H]1[C@H](C(C)C)[C@@H](OC(C)=O)C/C(C)=C/CC[C@]2(C)O[C@@H]12`, the TGI was > 100 µM.

Each molecule was assayed on DU-145 prostate (assay: NCI-60 cell line screen, 48 h).

`CN(C)C(=O)O/N=C1/C(c2c(O)[nH]c3ccccc23)=Nc2ccccc21` and `CCOC(=O)CSc1c(C(=O)OCC)c(=O)n(-c2ccccc2)c(=S)n1-c1ccccc1` cannot be ordered by TGI: > 100 µM for the first, > 100 µM for the second.

`O=[N+]([O-])c1cccc(-c2csc(NNC3=NC/C(=C/c4ccc5c(c4)OCO5)S3)n2)c1` and `CC(=O)NC(Cc1ccc(O)cc1)C(=O)O` (stereo not drawn) cannot be ordered by TGI: > 100 µM for the first, > 100 µM for the second.

`COCO[C@@H]1C[C@H]2C(=O)Nc3ccccc3C(=O)N2C1` and `CN1C(=O)C2CCC(=O)N2c2cccnc21` (stereo not drawn) cannot be ordered by TGI: > 100 µM for the first, > 100 µM for the second.

`CC(=O)O[C@@H]1[C@H](C(C)C)[C@@H](OC(C)=O)C/C(C)=C/CC[C@]2(C)O[C@@H]12` was tested, and the TGI was > 100 µM.

Each molecule was assayed on HCC-2998 colon (assay: NCI-60 cell line screen, 48 h).

Going from `CN(C)C(=O)O/N=C1/C(c2c(O)[nH]c3ccccc23)=Nc2ccccc21` to `Nc1c2c(nc3ccccc13)-c1ccccc1CC2`, the TGI falls from > 100 µM to 2.81 µM.

`O=[N+]([O-])c1cccc(-c2csc(NNC3=NC/C(=C/c4ccc5c(c4)OCO5)S3)n2)c1` and `CC(=O)NC(Cc1ccc(O)cc1)C(=O)O` (stereo not drawn) cannot be ordered by TGI: > 100 µM for the first, > 100 µM for the second.

`CN1C(=O)C2CCC(=O)N2c2cccnc21` (stereo not drawn) and `CC(=O)O[C@@H]1[C@H](C(C)C)[C@@H](OC(C)=O)C/C(C)=C/CC[C@]2(C)O[C@@H]12` cannot be ordered by TGI: > 100 µM for the first, > 100 µM for the second.

These molecules were tested on UACC-62 melanoma (assay: NCI-60 cell line screen, 48 h).

First: CN(C)C(=O)O/N=C1/C(c2c(O)[nH]c3ccccc23)=Nc2ccccc21
Second: Nc1c2c(nc3ccccc13)-c1ccccc1CC2
The TGI of the first is 4.6-fold higher: 98.6 µM for the first, 21.4 µM for the second.

Going from `O=[N+]([O-])c1cccc(-c2csc(NNC3=NC/C(=C/c4ccc5c(c4)OCO5)S3)n2)c1` to `CCOC(=O)CSc1c(C(=O)OCC)c(=O)n(-c2ccccc2)c(=S)n1-c1ccccc1`, the TGI rises from 56.5 µM to > 100 µM.

`CC(=O)NC(Cc1ccc(O)cc1)C(=O)O` (stereo not drawn) and `COCO[C@@H]1C[C@H]2C(=O)Nc3ccccc3C(=O)N2C1` cannot be ordered by TGI: > 100 µM for the first, > 100 µM for the second.

`CN1C(=O)C2CCC(=O)N2c2cccnc21` (stereo not drawn) and `CC(=O)O[C@@H]1[C@H](C(C)C)[C@@H](OC(C)=O)C/C(C)=C/CC[C@]2(C)O[C@@H]12` cannot be ordered by TGI: > 100 µM for the first, > 100 µM for the second.

What follows are molecules tested on SK-MEL-2 melanoma (assay: NCI-60 cell line screen, 48 h).

`CN(C)C(=O)O/N=C1/C(c2c(O)[nH]c3ccccc23)=Nc2ccccc21` and `Nc1c2c(nc3ccccc13)-c1ccccc1CC2` are within 1.5-fold of each other in TGI: 33.4 µM for the first, 23 µM for the second.

Compared with `O=[N+]([O-])c1cccc(-c2csc(NNC3=NC/C(=C/c4ccc5c(c4)OCO5)S3)n2)c1`, `CCOC(=O)CSc1c(C(=O)OCC)c(=O)n(-c2ccccc2)c(=S)n1-c1ccccc1` is higher in TGI: 56.5 µM for the first, > 100 µM for the second.

`CC(=O)NC(Cc1ccc(O)cc1)C(=O)O` (stereo not drawn) and `COCO[C@@H]1C[C@H]2C(=O)Nc3ccccc3C(=O)N2C1` cannot be ordered by TGI: > 100 µM for the first, > 100 µM for the second.

`CN1C(=O)C2CCC(=O)N2c2cccnc21` (stereo not drawn) and `CC(=O)O[C@@H]1[C@H](C(C)C)[C@@H](OC(C)=O)C/C(C)=C/CC[C@]2(C)O[C@@H]12` cannot be ordered by TGI: > 100 µM for the first, > 100 µM for the second.

The molecules below were run on IGROV1 ovarian (assay: NCI-60 cell line screen, 48 h).

First: CN(C)C(=O)O/N=C1/C(c2c(O)[nH]c3ccccc23)=Nc2ccccc21
Second: Nc1c2c(nc3ccccc13)-c1ccccc1CC2
The TGI of the first is 3.2-fold higher: 64 µM for the first, 19.8 µM for the second.

Compared with `O=[N+]([O-])c1cccc(-c2csc(NNC3=NC/C(=C/c4ccc5c(c4)OCO5)S3)n2)c1`, `CCOC(=O)CSc1c(C(=O)OCC)c(=O)n(-c2ccccc2)c(=S)n1-c1ccccc1` is higher in TGI: 47.4 µM for the first, > 100 µM for the second.

`CC(=O)NC(Cc1ccc(O)cc1)C(=O)O` (stereo not drawn) and `COCO[C@@H]1C[C@H]2C(=O)Nc3ccccc3C(=O)N2C1` cannot be ordered by TGI: > 100 µM for the first, > 100 µM for the second.

`CN1C(=O)C2CCC(=O)N2c2cccnc21` (stereo not drawn) and `CC(=O)O[C@@H]1[C@H](C(C)C)[C@@H](OC(C)=O)C/C(C)=C/CC[C@]2(C)O[C@@H]12` cannot be ordered by TGI: > 100 µM for the first, > 100 µM for the second.

The molecules below were run on NCI-H460 lung (assay: NCI-60 cell line screen, 48 h).

`CN(C)C(=O)O/N=C1/C(c2c(O)[nH]c3ccccc23)=Nc2ccccc21` and `O=[N+]([O-])c1cccc(-c2csc(NNC3=NC/C(=C/c4ccc5c(c4)OCO5)S3)n2)c1` cannot be ordered by TGI: > 100 µM for the first, > 100 µM for the second.

`CC(=O)NC(Cc1ccc(O)cc1)C(=O)O` (stereo not drawn) and `CN1C(=O)C2CCC(=O)N2c2cccnc21` (stereo not drawn) cannot be ordered by TGI: > 100 µM for the first, > 100 µM for the second.
